Reference: patent US10702506B2, “Small molecule inhibitors of pendrin ion exchange and pharmaceutical compositions” (THE REGENTS OF THE UNIVERSITY OF CALIFORNIA, priority 2016, dated 2020)

How the values were obtained:
[1] = biological target: T1, ENaC (Homo sapiens, UniProt P37088+P51168+P51170); test: Short-circuit current (Isc) analysis in IL-13-treated HBE cells, amiloride response; type: cell-based; settings: 25 μM, 30 min pre-treatment
T1 construct: endogenous in cells; host or cells: IL-13-treated primary human bronchial epithelial (HBE) cell cultures
T1 sequence (P37088 1-669): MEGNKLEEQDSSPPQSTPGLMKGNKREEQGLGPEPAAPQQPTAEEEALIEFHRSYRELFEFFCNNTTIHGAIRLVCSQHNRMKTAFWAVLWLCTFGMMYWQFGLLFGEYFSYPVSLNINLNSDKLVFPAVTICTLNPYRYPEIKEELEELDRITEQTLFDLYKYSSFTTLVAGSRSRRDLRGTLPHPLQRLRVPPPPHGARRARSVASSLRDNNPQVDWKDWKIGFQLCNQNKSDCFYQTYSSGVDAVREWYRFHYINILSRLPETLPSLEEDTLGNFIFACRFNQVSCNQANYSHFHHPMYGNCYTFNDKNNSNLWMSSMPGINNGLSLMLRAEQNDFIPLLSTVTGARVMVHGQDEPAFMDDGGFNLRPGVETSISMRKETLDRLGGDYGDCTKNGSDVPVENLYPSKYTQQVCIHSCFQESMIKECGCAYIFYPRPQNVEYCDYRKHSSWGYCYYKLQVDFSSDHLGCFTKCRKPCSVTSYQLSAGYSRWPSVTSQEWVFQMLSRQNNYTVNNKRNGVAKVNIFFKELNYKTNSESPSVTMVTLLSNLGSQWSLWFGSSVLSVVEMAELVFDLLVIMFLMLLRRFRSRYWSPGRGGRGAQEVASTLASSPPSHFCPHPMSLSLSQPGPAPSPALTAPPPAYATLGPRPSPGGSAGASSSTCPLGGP
T1 sequence (P51168 1-640): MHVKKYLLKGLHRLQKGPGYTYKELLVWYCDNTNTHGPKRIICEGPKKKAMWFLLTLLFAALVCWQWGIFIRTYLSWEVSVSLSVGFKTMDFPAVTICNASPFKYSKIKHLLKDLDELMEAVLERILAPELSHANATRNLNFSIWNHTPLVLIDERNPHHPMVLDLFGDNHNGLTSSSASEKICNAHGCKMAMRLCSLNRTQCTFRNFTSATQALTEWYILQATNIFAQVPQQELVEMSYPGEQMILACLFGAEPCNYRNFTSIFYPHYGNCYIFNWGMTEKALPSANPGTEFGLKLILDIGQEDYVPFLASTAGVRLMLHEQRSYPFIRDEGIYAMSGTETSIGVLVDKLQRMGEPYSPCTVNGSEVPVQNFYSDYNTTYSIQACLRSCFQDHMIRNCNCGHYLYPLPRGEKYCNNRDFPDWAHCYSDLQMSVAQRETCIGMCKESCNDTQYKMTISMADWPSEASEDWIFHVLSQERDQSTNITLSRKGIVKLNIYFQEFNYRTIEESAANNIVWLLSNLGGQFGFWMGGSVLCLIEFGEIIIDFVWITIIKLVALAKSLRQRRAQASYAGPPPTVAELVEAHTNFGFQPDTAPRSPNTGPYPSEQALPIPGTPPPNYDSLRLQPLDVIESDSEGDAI
T1 sequence (P51170 1-649): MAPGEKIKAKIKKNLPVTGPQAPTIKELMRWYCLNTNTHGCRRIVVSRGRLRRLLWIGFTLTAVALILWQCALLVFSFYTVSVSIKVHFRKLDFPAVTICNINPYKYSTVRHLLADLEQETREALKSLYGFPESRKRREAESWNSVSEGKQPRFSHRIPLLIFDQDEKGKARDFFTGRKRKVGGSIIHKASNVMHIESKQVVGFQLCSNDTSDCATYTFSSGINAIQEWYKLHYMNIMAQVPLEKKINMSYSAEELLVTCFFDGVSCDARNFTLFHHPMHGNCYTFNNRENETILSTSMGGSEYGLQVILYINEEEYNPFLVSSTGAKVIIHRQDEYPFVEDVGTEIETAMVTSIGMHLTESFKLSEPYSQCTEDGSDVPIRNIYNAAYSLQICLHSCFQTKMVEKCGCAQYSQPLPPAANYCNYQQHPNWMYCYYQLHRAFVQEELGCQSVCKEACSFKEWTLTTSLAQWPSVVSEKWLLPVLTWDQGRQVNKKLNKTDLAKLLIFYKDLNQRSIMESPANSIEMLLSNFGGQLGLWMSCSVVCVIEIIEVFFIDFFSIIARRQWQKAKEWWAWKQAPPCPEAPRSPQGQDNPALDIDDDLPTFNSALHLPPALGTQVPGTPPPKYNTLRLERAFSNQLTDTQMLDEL
Method: (§1) Further experiments were done with PDSinh-A01 because of its greater inhibition potency for Cl^−/HCO3^− exchange than PDSinh-C01. To investigate PDSinh-A01 specificity, the major ion transport pathways in HBE cells were studied by short-circuit current (Isc) analysis. Cells were treated with IL-13 to increase Ca^2+-activated Cl^− conductance (CaCC) activity. For Isc measurements, cells were sequentially treated with amiloride to inhibit the epithelial sodium channel (ENaC), forskolin to activate the cystic fibrosis transmembrane conductance regulator (CFTR), CFTRinh-172 to inhibit CFTR, and ATP to activate CaCC. In the absence of PDSinh-A01, ion channel modulators produced the anticipated changes in Isc (FIG. 4A).
(§2) IL-13-treated HBE cells were cultured on Snapwell clear permeable supports (12 mm diameter, 0.4 μm polyester membrane, Costar, Corning, Corning, N.Y.). Short-circuit current was measured using symmetrical HCO3^−-buffered solutions (in mM: 120 NaCl, 5 KCl, 1 MgCl2, 1 CaCl2, 5 Hepes, 25 NaHCO3; pH 7.4) as described, with ion transport modulators added to both apical and basolateral bathing solutions. Cells were equilibrated with 95% O2/5% CO2 and maintained at 37° C. during data acquisition. Statistical analysis was by Student's t-test.

[2] = biological target: T2, CFTR (Homo sapiens, UniProt P13569); test: Short-circuit current (Isc) analysis in IL-13-treated HBE cells, forskolin / CFTRinh-172 response; type: cell-based; settings: 25 μM, 30 min pre-treatment
T2 construct: endogenous in cells; host or cells: IL-13-treated primary HBE cell cultures (HBE = non-CF donors)
Method: as §1, §2

T2 sequence (P13569 whole entry): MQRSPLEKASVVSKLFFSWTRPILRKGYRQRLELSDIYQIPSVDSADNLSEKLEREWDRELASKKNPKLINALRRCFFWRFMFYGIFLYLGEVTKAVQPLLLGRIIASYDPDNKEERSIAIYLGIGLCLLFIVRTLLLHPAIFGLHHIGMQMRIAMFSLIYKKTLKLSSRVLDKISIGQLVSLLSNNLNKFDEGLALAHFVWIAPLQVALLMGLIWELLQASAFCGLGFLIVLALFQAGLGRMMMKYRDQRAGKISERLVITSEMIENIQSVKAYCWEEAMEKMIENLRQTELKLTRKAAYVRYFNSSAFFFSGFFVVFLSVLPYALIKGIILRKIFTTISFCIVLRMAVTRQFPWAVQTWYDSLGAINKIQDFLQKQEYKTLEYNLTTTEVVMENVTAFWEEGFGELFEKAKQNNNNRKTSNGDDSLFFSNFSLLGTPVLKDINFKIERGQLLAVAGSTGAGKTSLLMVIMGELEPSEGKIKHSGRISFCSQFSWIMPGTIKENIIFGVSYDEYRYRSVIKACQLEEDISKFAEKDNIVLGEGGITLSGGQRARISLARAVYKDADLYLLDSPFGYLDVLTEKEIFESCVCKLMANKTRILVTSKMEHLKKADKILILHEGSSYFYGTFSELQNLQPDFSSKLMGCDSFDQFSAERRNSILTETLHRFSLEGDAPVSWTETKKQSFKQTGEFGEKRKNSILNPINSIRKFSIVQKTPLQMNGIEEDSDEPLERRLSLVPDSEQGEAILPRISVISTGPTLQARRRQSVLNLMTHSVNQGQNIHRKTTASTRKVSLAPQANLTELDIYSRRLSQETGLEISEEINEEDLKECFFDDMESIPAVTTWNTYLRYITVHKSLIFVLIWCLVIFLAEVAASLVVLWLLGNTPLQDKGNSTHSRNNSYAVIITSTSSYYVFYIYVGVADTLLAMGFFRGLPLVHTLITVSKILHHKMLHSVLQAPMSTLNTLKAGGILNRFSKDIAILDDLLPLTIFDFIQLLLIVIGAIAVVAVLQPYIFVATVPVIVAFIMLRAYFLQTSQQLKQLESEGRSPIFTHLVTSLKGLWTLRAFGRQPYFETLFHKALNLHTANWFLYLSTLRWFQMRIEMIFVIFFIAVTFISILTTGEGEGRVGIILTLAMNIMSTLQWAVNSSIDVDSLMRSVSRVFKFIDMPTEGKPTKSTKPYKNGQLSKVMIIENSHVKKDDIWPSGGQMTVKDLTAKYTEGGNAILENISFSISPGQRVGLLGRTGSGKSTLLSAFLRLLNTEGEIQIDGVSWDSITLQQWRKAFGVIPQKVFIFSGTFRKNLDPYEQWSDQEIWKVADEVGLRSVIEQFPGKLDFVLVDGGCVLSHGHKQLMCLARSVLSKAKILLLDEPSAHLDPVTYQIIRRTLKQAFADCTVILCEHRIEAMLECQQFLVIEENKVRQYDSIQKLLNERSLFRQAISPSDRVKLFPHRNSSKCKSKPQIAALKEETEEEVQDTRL

- effect on ENaC activity (Isc response) [1]: did not affect the activity
- effect on CFTR activity (Isc response) [2]: did not affect the activity
SMILES: Cn1nc(COc2cccc(F)c2)c2c1CCN(C(=O)Nc1ccc(Cl)cc1)C2 [PDSinh-A01]
